Data published in ChEMBL document CHEMBL1201862, “PubChem BioAssay data set” (2004).
Calls of active or inactive are those of the source.

Assays:
[1] = target: T1, Adenosylmethionine-8-amino-7-oxononanoate aminotransferase (Mycobacterium tuberculosis, UniProt P9WQ81); experiment: Mycobacterium tuberculosis BioA enzyme inhibitor Measured in Biochemical System Using Plate Reader - 2163-02_Inhibitor_Dose_CherryPick_Activity.; type: functional, Mycobacterium tuberculosis UT205
T1 sequence (P9WQ81 whole entry): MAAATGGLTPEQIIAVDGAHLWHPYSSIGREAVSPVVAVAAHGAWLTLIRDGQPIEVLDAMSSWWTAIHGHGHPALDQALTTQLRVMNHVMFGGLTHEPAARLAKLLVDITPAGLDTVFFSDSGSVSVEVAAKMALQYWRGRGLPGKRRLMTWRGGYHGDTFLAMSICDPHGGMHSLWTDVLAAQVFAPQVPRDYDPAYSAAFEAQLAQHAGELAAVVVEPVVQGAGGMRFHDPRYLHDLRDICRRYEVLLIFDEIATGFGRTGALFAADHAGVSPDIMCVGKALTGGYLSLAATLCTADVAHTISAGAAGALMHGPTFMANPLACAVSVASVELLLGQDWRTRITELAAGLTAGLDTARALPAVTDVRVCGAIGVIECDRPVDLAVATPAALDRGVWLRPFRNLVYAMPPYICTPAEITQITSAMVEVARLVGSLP

[2] = target: Ras and Rab interactor 1/Tyrosine-protein kinase ABL1 (Homo sapiens, UniProt P00519+Q13671); type: functional;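 further: biochemical TR-FRET dose-response test measuring inhibition of binding between Rin1 and Abl proteins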
[3] = Fluorescence-based cell-based high throughput dose response assay for inhibitors of the interaction of nucleotide-binding oligomerization domain containing 2 (NOD2) and the receptor-interacting serine-threonine kinase 2 (RIPK2).; type: functional, Homo sapiens
[4] = target: Dual specificity protein kinase CLK1 (Homo sapiens, UniProt P49759); experiment: inhibition of human CLK1 activity – biochemical, cherry-picked samples, selectivity assay for Dyrk1A inhibitor project, dose response (AID 588811)
[5] = target: T2, Corticotropin-releasing factor receptor 2/Corticotropin-releasing factor-binding protein (Homo sapiens, UniProt P24387+Q13324); experiment: Dose Response confirmation of uHTS hits for small molecule antagonists of the CRF-binding protein and CRF-R2 receptor complex.; type: functional; details: read-out: IC50_Mean
T2 sequence (Q13324 whole entry): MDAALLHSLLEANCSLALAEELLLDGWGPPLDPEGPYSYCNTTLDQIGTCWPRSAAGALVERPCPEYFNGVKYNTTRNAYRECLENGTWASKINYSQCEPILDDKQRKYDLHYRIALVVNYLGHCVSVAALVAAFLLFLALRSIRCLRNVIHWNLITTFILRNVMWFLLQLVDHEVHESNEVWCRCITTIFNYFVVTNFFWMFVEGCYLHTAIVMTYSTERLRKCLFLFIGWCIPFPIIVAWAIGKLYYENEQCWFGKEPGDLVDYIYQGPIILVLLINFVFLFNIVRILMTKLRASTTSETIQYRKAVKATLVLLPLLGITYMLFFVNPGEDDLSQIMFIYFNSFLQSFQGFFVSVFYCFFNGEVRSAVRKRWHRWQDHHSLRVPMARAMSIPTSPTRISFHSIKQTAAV
T2 sequence (P24387 whole entry): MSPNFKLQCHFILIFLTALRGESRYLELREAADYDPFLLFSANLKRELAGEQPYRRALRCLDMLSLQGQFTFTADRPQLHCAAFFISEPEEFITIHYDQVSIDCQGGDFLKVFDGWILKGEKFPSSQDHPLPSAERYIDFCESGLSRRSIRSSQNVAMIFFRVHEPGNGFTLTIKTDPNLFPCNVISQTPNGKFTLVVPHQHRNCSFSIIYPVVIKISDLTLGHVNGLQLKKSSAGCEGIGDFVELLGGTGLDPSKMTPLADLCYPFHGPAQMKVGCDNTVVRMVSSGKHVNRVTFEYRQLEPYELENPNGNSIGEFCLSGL

[6] = blockers of CRF-binding protein–CRF-R2 complex – cell-based, uHTS hits, 384-well, dose response (AID 651639); type: functional, Homo sapiens; details: read-out: IC50_Mean
[7] = target: T2, Corticotropin-releasing factor receptor 2/Corticotropin-releasing factor-binding protein; experiment: activators of CRF receptor 2 with binding protein – uHTS hits, confirmation (AID 602473); type: functional; details: read-out: EC50_Mean
[8] = target: T3, Heat shock factor protein 1 (Mus musculus, UniProt P38532); experiment: decrease of HSF1-responsive luciferase luminescence – cell-based, NIH3T3, dose retest, confirmation (AID 2382); type: functional;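 further: NIH3T3 fibroblasts with HSF1-driven luciferase reporter stressed by proteasome inhibitor MG132; luminescence from HSF1-driven luciferase expression after 8 hours of MG132 stress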
T3 sequence (P38532 whole entry): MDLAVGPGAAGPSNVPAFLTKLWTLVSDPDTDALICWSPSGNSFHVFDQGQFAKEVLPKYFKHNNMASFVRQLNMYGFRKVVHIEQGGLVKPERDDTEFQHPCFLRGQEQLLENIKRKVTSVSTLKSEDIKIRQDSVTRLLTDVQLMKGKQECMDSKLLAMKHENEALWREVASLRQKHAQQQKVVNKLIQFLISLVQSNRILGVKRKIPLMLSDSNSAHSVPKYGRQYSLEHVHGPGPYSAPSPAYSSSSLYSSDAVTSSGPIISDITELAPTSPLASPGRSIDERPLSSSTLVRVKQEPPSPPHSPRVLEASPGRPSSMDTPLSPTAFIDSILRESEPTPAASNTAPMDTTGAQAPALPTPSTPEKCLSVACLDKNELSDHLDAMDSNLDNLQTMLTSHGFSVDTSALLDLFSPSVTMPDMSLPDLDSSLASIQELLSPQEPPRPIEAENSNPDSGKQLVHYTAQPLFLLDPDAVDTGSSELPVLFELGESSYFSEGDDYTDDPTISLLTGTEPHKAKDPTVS

Paired box protein Pax-8 = Paired box protein Pax-8 (Homo sapiens, UniProt Q06710); experiment: PAX8 transcriptional activity inhibition in RMG-I – RMG-I cells, luciferase, cherry-pick, dose response (AID 687027); type: functional, cell-based;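 further: luciferase reporter driven by Pax8 target thyroperoxidase promoter measured by SteadyGlo luminescence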
[9] = Luminescence Cell-Based Dose Confirmation HTS to Identify Activators of 5'UTR Stem-Loop Driven Alpha-Synuclein mRNA Translation in H4 Neuroglioblastoma Cells. [Related pubchem assays: 1829 (Project Summary), 1814 (Primary HTS)]; type: functional
[10] = microbe, parasite or virus in culture; type: functional; details: Mycobacterium tuberculosis
H4 = experiment: Luminescence Cell-Based Dose Response HTS to Identify Activators of 5'UTR Stem-Loop Driven Prion Protein mRNA Translation in H4 Neuroglioblastoma Cells. [Related pubchem assays: 1829 (Project Summary), 1814 (Primary HTS)]; type: functional; details: Homo sapiens
[11] = Luminescence Cell-Based Dose Response HTS to Identify Activators of Luciferase Translation or Activity in H4 […] Cells. [Related pubchem assays: 1829 (Project Summary), 1814 (Primary HTS)]; type: functional
A-375 = experiment: proliferation inhibition in MITF-low A375 cells – cell-based, cherry-pick samples, set 2, counter-screen for MITF modulator project, dose response (AID 540335); type: functional; details: Homo sapiens
[12] = THP-1 cell cytotoxicity, dose response, cytotoxicity control for non-replicating M. tuberculosis project (AID 489025); type: functional
[13] = Luminescence Cell-Based Dose Retest to Confirm Inhibitors of Cancer Stem Cells. [Related pubchem assays (depositor defined):AID2717, AID2721]; type: functional; details: Homo sapiens
[14] = target: FAD-linked sulfhydryl oxidase ALR (Homo sapiens, UniProt P55789); experiment: ALR-catalysed DTT oxidation blockers – biochemical, H2O2 detection, luminescence, cherry-pick, dose response (AID 493248)
cells = type: functional
[15] = target: T4, Histone-lysine N-methyltransferase NSD2 (Homo sapiens, UniProt O96028); type: biochemical
T4 sequence (O96028 whole entry): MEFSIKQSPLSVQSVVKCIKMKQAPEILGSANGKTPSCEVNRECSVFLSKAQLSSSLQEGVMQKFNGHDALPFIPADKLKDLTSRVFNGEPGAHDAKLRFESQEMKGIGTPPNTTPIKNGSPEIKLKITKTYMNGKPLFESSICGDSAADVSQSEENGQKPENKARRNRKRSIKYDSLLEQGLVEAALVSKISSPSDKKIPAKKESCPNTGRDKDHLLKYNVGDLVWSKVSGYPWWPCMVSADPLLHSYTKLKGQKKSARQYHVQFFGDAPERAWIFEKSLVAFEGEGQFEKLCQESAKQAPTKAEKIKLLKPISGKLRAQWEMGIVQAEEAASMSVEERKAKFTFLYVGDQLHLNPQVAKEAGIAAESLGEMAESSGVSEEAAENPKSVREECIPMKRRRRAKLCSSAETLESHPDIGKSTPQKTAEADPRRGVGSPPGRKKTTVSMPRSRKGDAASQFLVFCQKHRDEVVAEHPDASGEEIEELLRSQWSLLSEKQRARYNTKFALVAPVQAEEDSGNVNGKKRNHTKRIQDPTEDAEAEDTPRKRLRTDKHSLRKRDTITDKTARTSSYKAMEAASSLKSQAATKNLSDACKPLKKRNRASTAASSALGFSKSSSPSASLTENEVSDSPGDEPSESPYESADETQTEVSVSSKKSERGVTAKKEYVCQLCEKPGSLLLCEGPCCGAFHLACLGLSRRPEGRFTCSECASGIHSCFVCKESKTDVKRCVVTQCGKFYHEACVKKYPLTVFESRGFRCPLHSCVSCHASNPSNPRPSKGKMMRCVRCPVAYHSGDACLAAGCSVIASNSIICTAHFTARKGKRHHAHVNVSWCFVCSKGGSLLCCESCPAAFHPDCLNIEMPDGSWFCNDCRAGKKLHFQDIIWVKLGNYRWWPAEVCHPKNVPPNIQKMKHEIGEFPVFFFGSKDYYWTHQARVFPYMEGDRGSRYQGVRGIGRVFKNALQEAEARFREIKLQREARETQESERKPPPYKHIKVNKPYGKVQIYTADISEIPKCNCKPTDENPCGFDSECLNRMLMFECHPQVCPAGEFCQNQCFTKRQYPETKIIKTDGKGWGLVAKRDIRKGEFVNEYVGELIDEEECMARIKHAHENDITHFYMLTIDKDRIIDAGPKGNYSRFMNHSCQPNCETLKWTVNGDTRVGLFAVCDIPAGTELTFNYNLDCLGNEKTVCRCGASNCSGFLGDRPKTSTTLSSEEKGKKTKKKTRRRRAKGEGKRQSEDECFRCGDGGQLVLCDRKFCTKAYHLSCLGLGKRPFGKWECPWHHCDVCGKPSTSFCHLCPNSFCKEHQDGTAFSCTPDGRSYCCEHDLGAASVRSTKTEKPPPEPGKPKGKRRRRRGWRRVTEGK

[16] = target: T5, Microphthalmia-associated transcription factor (Homo sapiens, UniProt O75030); experiment: reducers of TRPM1 reporter luminescence, concentration series – cell-based, SK-MEL-5, cherry-picked, set 3, MITF inhibitor project, dose response (AID 493073); type: functional;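 further: SK-MEL-5 melanoma cells with luciferase driven by the MITF target TRPM1 promoter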
T5 sequence (O75030 whole entry): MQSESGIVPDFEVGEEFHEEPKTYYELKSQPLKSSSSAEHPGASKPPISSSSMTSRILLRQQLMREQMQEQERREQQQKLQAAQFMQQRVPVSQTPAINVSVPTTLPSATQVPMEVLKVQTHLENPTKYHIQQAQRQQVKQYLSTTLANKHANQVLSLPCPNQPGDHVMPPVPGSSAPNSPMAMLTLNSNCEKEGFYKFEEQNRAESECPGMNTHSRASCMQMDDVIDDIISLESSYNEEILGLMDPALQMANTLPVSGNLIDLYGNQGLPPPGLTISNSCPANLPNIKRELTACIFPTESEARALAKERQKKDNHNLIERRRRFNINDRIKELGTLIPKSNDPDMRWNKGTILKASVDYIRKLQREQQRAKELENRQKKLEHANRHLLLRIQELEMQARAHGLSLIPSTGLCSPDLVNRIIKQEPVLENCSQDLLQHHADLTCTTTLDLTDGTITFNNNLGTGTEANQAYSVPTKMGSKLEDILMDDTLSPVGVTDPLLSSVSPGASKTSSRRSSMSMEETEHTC

Chain of Dual specificity protein kinase CLK1 (P49759 whole entry): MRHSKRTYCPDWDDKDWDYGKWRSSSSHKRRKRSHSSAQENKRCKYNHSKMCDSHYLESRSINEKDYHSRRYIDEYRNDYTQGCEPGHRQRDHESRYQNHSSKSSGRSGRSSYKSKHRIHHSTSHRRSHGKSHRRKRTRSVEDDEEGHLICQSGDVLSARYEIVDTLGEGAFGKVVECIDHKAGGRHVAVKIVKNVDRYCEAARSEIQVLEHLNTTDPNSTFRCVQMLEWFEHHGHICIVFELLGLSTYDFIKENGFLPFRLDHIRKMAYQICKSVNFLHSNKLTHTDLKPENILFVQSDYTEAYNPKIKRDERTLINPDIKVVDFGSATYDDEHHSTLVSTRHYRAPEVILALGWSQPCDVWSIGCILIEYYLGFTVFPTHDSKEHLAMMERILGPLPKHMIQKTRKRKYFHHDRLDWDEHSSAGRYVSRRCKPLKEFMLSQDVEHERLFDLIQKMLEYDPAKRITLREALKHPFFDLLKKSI
Chain of Ras and Rab interactor 1/Tyrosine-protein kinase ABL1 (P00519 whole entry, the tested form may be a part): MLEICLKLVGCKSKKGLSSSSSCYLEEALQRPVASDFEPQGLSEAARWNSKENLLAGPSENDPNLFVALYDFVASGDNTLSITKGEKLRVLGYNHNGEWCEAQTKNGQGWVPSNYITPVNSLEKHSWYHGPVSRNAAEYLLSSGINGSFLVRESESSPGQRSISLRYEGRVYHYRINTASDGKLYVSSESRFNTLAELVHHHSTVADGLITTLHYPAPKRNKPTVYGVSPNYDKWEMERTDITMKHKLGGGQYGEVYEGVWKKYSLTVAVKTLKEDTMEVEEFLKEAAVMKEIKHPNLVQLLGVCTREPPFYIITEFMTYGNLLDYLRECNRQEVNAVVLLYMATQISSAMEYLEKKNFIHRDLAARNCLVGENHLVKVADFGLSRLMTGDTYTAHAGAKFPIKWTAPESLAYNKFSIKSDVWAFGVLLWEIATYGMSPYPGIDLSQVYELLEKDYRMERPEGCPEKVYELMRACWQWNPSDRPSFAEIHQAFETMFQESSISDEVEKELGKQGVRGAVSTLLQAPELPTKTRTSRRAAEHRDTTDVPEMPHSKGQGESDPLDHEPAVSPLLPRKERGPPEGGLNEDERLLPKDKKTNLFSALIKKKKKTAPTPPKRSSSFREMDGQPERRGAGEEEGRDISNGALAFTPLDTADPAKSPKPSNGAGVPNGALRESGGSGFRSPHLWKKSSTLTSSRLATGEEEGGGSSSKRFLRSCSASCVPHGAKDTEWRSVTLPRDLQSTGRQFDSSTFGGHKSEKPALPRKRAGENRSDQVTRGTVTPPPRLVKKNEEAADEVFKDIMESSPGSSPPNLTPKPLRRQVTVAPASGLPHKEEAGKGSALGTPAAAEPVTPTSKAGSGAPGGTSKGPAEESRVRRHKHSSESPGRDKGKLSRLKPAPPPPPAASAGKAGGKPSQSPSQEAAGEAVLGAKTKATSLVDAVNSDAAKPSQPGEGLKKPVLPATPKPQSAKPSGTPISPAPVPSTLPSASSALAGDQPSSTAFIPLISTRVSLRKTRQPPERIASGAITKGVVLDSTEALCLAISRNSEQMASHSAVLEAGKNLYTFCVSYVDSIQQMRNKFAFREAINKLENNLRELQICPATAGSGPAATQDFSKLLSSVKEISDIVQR
Chain of Ras and Rab interactor 1/Tyrosine-protein kinase ABL1 (Q13671 whole entry, the tested form may be a part): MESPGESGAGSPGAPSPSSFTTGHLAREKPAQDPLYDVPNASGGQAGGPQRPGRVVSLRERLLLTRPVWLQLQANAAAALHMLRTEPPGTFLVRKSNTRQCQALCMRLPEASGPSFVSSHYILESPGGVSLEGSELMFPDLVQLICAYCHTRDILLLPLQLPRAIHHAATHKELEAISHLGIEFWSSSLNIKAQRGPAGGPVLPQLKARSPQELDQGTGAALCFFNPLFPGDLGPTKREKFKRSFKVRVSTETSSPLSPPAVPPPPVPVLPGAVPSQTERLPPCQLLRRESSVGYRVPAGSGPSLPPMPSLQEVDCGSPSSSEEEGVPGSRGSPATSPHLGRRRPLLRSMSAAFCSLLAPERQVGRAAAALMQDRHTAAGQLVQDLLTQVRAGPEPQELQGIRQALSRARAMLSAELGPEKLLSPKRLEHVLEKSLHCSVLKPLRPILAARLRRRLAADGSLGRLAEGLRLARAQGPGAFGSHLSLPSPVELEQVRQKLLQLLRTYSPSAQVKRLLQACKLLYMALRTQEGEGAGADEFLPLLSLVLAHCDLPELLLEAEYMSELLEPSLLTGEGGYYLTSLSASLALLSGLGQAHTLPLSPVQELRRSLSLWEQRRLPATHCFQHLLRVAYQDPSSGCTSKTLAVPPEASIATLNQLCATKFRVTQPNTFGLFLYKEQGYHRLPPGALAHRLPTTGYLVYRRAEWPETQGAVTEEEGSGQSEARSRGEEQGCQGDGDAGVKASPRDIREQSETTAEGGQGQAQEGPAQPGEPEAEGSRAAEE
Chain of Paired box protein Pax-8 (Q06710 whole entry): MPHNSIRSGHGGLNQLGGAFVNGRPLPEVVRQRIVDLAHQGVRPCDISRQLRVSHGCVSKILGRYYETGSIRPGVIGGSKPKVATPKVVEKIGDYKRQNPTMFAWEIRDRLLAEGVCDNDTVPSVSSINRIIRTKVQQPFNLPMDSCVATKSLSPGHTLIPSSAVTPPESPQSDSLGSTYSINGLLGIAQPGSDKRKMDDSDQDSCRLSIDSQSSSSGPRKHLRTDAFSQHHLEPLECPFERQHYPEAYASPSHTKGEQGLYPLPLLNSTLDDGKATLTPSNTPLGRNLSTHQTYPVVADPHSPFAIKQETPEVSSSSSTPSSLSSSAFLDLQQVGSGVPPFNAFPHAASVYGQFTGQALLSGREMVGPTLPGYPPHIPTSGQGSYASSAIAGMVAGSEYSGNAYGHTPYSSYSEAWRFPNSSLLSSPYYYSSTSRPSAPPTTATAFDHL
Chain of FAD-linked sulfhydryl oxidase ALR (P55789 whole entry): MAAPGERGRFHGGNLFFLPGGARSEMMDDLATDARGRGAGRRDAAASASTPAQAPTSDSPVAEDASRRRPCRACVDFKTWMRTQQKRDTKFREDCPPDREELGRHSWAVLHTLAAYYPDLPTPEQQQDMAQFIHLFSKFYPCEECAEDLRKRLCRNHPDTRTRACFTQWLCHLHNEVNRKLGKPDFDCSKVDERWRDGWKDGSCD

For `COc1ccc(Cc2c(-c3ccc(OC)c(OC)c3)nc3ccc(C)cn23)c(C)c1`, the AC50 [1] was 2.73 µM (active).

For `COC(=O)c1ccc(CSc2nnc(-c3ccccc3)n2C)o1`, the IC50 [2] was 14.1 µM (inactive).

For `CC1=CC2OC3CC4OC(=O)C=CC=CC(C(C)O)OCC(O)C(C)CC(=O)OCC2(CC1O)C4(C)C31CO1` (centres undefined), the IC50 [3] was 49.8 µM (inactive).

In the case of `CCOC(=O)c1ccc(-c2ccc3ncnc(N(C)Cc4sccc4C)c3c2)o1`, the AC50 [4] is reported as 1.47 µM (active).

With `Cc1ccccc1-n1c(SCC(=O)N(C)C2CCS(=O)(=O)C2)nc2ccccc2c1=O` (centres undefined) the AC50 [1] was 2.39 µM (active).

For `COc1ccc(Cl)cc1NC(=O)C(C)NC(c1ccccc1)c1ccccc1` (centres undefined), the IC50 [5] was 1.14 µM (active), the IC50 [6] was > 20 µM (inactive) and the EC50 [7] was > 53 µM (inactive).

With `Clc1ccc(CNc2ccnc(-c3ccc4[nH]ncc4c3)n2)cc1Cl` the AC50 [4] was 0.00784 µM (active).

With `COC(=O)C[C@H]1CC[C@@H]2[C@H](COC[C@@H](O)CN2C(=O)Nc2cccc(F)c2)O1` the AC50 [1] was 13.7 µM (active).

For `COc1nn(-c2ccccc2)c(=O)c(Cl)c1Cl`, the EC50 [8] was 9.89 µM (active), the AC50 (Paired box protein Pax-8) was 6.72 µM (active) and the EC50 [9] was > 120 µM (not active). For the same compound, the CC50 [10] was 8.79 µM (active), the EC50 (H4) was > 120 µM (not active) and the EC50 [11] was > 120 µM (not active). The IC50 ([3]; Homo sapiens) was 4.58 µM (active).

With `Cc1occc1CNc1ncnc2ccc(-c3ccc4c(c3)OCO4)cc12` the AC50 [4] was 0.0118 µM (active).

With `CCCOc1ccc(/C=C/C(=O)N2CCN(C(=O)c3ccco3)CC2)cc1OC` the IC50 [2] was > 73.5 µM (inactive).

For `O=C(Nc1cc(-c2ccccc2)sc1C(=O)O)c1cccc(F)c1`, the IC50 [5] was 23.5 µM (active), the IC50 [6] was 14.2 µM (active) and the EC50 [7] was > 53 µM (inactive).

In the case of `CCc1ccc(N2C(=O)NC(=O)/C(=C\C=C\c3ccco3)C2=O)cc1`, the AC50 (A-375) is reported as 21.6 µM (active), the CC50 [12] is reported as > 40 µM (active) and the AC50 [13] is reported as 1.96 µM (active). The AC50 [14] was 4.24 µM (active), the IC50 (cells) was 19.6 µM (active) and the AC50 [15] was > 20 µM (inactive). For the same compound, the AC50 [16] was 7.53 µM (active).
